Test [1] deals with T1, GST-tagged KRAS-G12D (2-169) (Homo sapiens, UniProt P01116, G12D).
T1 construct: GST-tagged KRAS-G12D (2-169, Reaction Biology, MSC-11-539); purchased Reaction Biology MSC-11-539 (KRAS G12D); MSC-11-502 (SOS1cat)
The test can be described thus: Nucleotide exchange assay (NEA), SOS-mediated, HTRF, KRAS G12D. The format is biochemical. The settings on record: Table 4; IC50 extracted at 30 min. From the text:
This activity is tightly regulated by GTPase activating proteins (GAPs) and guanine nucleotide exchange factors (GEFs). GEFs, such as SOS1/2, activate Ras proteins by exchanging GDP for GTP, thus returning Ras to its active conformation (Simanshu, Nissley, & McCormick, 2017). […] Homogenous time resolved fluorescence (HTRF) was used to detect SOS-mediated binding of a fluorescent GTP analog, GTP-DY-647P1 (Jena Biosciences NU-820-647P1) to GST-tagged KRAS-G12D (2-169, Reaction Biology, MSC-11-539) or to GST-tagged KRAS-G12V (2-169, Reaction Biology, MSC-11-540).
GST-tagged KRAS-G12D (2-169) and anti-GST MAb Tb Cryptate Gold (CisBio 61GSTTLB) were diluted into assay buffer (20 mM HEPES, pH 7.3, 150 mM NaCl, 5 mM MgCl2, 0.05% BSA 0.0025% NP40, 1 mM DTT) to prepare a 2.5× donor solution. 5× compound was added to the protein mixture and incubated for 1 h at RT. 2.5× acceptor solution containing SOSIcat (564-1049, Reaction Biology MSC-11-502) and GTP-DY-647P1 were then added to the donor KRAS mixture such that the final concentration of the reaction contained 5 nM GST-tagged KRAS-G12D (2-169), 20 nM SOScat, and 150 nM GTP. The reaction was monitored using at RT with the Envision multimode plate reader (Ex/Em 337/665, […]) up to 90 minutes at 5 minute intervals. To monitor KRAS-G12V Sos-mediated nucleotide exchange, 80 nM SOS was added to reaction instead of 20 nM. All other components were the same as previously described. Data was blanked to reactions without SOS1 and % inhibition was calculated such that DMSO only=0% and blank=100%. Curve fitting was done using a 4 parameter fit. Reported IC50 values were extracted at 30 min and 90 min for the KRAS-G12D and KRAS-G12V assays, respectively.
Curve fitting was done using a 4 parameter fit. NEA KRAS G12D IC50 (uM) values of selected compounds are depicted in Table 2 with compounds having a value <0.01 uM as ++++; >0.01 uM to 0.1 uM as +++; >0.1 uM to 1 uM as ++; >1 uM to 20 uM as +; and >20 uM as NA.

Test [2] concerns the target T2, KRAS G12D/RAF1 (Homo sapiens, UniProt P01116, G12D).
T2 construct: His6-MBP (N, cleaved yes); made in house; host or cells: E. coli
The test can be described thus: Protein-protein interaction (PPI) HTRF assay KRAS G12D/RAF1. The test is classed as binding. The settings on record: Table 4. As to the method: Biotinylated KRAS wt and KRAS G12DNV proteins were expressed and purified in conditions similar to those previously reported (Tran, et al., 2021) (Zhang, et al., 2020). Briefly, KRAS (1-169) proteins were expressed in E. coli at 18° C. with an upstream TEV cleavage site (ENLFYQS (SEQ ID NO: 6)) followed an Avi tag sequence ([…] (SEQ ID NO: 7)). KRAS expression constructs contained both a His6 (SEQ ID NO: 8) and maltose-binding protein (MBP) tags at the N-terminus for Ni-NTA column purification prior to overnight TEV cleavage and MBP column purification. The avi-tagged NRAS expression construct contained both a His6 tag (SEQ ID NO: 8) and SUMO cleavage sige at the N-terminus for Ni-NTA column purification followed by His-ULPi digestion overnight. All avi-tagged RAS proteins were dialyzed into buffer containing ATP, biotin, and BirA followed by purification over a second Ni-NTA column and then run over a size exclusion HiLoad™ 26/600 Superdex™ column in 20 mM HEPES, pH 7.5, 300 mM NaCl, 5 mM MgCl2, and 1 mM TCEP. Fractions containing the protein of interest were pooled, concentrated, and confirmed by intact mass spectrometry. To prepare ‘GTP’ loaded KRAS and NRAS, biotinylated KRAS or NRAS was nucleotide exchanged from GDP-bound protein to GppNHp-bound (Jena Biosciences, NU-401-50) protein in the presence of alkaline phosphatase and excess GppNHp as previously described and the resulting nucleotide content was confirmed by HPLC reverse phase analytical chromatography (Donohue, et al., 2019) (Tran, et al., 2021).
His-tagged RAF1 (52-131) was similarly expressed in E. coli at 18° C. overnight with an upstream TEV cleavage site. His-tagged RAF1 expression construct contained both a His6 (SEQ ID NO: 8) and MBP tags at the N-terminus for Ni-NTA column purification followed by MBP-tagged TEV digestion overnight. RAF1 protein samples were further purified over a MBP column followed by a Ni-NTA column and a second MBP column. The fractions containing the protein of interest were pooled, concentrated, and further purified over a HiLoad™ 16/600 Superdex™ 75 pg size exclusion column into 20 mM HEPES, pH8.0, 200 mM NaCl, 5 mM TCEP.
When RAS proteins are in the active GTP-bound conformation, they bind the effector protein RAF1 at the N-terminus Ras-binding domain (RBD, residues 52-131) (Tran, et al., 2021). Homogenous time resolved fluorescence (HTRF) was used to monitor the interaction between wt or mutant KRAS and RAF1 or wt NRAS and RAFT. Compounds were assayed in the presence of KRAS G12D/V and RAF1 versus wt KRAS to assess activity against mutant and w.t. KRAS. Similarly, compounds were then assayed in the presence of w.t. NRAS and RAF1 to assess RAS isoform selectivity. In all assay formats, His-tagged RAF1 protein was incubated with the HTRF donor, anti-6His (“6His” disclosed as SEQ ID NO: 8) Tb Cryptate gold (Cisbio 61DB10RDF), and biotinylated RAS proteins were incubated with the HTRF acceptor, streptavidin-d2 (CisBio 610SADLA). The intensity of the fluorescence signal emitted is proportional to binding between the two proteins. The donor solution was prepared by mixing 16 nM His-tagged RAF1 in protein dilution buffer with 1:100 anti-6His (“6His” disclosed as SEQ ID NO: 8) Tb cryptate in PPI-Terbium detection buffer. 16 nM biotinylated RAS protein was diluted into protein dilution buffer (50 mM Tris-HCl pH 7.5, 150 mM NaCl, 0.1 mM MgCl2, 1 mM TCEP, 0.005% Tween20) and mixed with 1:2000 Streptavidin-d2 diluted in PPI-Terbium detection buffer (CisBio 61DBTORDF). 50× compound in DMSO was mixed with 16 nM KRAS-acceptor solution and incubated for 30 minutes at room temperature. After compound pre-incubation with KRAS, the RAF1 donor solution was added to the KRAS-acceptor solution and incubated for 1 hour at room temperature. The fluorescence signal emitted was monitored at 665 nm and 615 nm using an Envision multimode plate reader. […]
On the technique in general: Time-resolved FRET reads energy transfer from a long-lived donor to a nearby acceptor.

Each structure is given as a SMILES string. Bounds are passed on as bounds.

T1 sequence (P01116 2-169 isoform P01116-2 G12D): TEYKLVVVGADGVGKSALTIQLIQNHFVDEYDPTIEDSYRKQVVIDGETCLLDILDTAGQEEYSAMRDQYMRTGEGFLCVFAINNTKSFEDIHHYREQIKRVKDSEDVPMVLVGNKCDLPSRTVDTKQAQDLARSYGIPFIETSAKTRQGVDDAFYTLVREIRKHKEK
T2 sequence (P01116 with tags, fused parts or gaps isoform P01116-2 G12D): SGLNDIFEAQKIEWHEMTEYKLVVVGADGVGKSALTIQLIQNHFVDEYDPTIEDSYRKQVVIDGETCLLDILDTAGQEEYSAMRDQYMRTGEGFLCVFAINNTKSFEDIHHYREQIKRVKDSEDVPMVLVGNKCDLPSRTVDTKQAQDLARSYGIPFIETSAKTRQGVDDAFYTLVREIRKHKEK

What is called IC50 is the midpoint of a concentration-inhibition curve. Higher therefore signals weaker potency in that assay. Consider `N#Cc1c(N2CCn3nncc3C2)nc(OC[C@@]23CCCN2C[C@H](F)C3)nc1N1CC2(CCc3sc(N)c(C#N)c32)C1` [Compound 55, 2-amino-1′-[5-cyano-6-(6,7-dihydro-4H-triazolo[1,5-a]pyrazin-5-yl)-2-[[(2R,8S)-2-fluoro-1,2,3,5,6,7-hexahydropyrrolizin-8-yl]methoxy]pyrimidin-4-yl]spiro[5,6-dihydrocyclopenta[b]thiophene-4,3′-azetidine]-3-carbonitrile], for which the IC50 in test [1] lay within 0.1 to 1 µM; in test [2], 10 to 100 µM.

On to `N#Cc1c(N2C[C@H]3CC[C@@H](C2)N3)nc(OCC2(CN3CCC(F)(F)CC3)CC2)nc1N1CC2(CCCc3sc(N)c(C#N)c32)C1` [Compound 56, 2-amino-1′-[5-cyano-6-[(1R,5S)-3,8-diazabicyclo[3.2.1]octan-3-yl]-2-[[1-[(4,4-difluoro-1-piperidyl)methyl]cyclopropyl]methoxy]pyrimidin-4-yl]spiro[6,7-dihydro-5H-benzothiophene-4,3′-azetidine]-3-carbonitrile], for which the IC50 in test [1] is below 0.01 µM; in test [2], 0.1 to 1 µM.

As to `CN1CCc2c(cccc2Oc2nc(N3C[C@H]4CC[C@@H](C3)N4)c(C#N)c(N3CC4(CCc5sc(N)c(C#N)c54)C3)n2)C1` [Compound 57, 2-amino-1′-[5-cyano-2-[(2-methyl-3,4-dihydro-1H-isoquinolin-5-yl)oxy]-6-[(1R,5S)-3,8-diazabicyclo[3.2.1]octan-3-yl]pyrimidin-4-yl]spiro[5,6-dihydrocyclopenta[b]thiophene-4,3′-azetidine]-3-carbonitrile], the IC50 in test [1] fell in the range of 1 to 20 µM; in test [2] it was 10 to 100 µM.

As to `N#Cc1c(N2C[C@H]3CC[C@@H](C2)N3)nc(OCC2(CN3CCC(F)(F)C3)CC2)nc1N1CC2(CCc3sc(N)c(C#N)c32)C1` [Compound 58, 2-amino-1′-[5-cyano-6-[(1R,5S)-3,8-diazabicyclo[3.2.1]octan-3-yl]-2-[[1-[(3,3-difluoropyrrolidin-1-yl)methyl]cyclopropyl]methoxy]pyrimidin-4-yl]spiro[5,6-dihydrocyclopenta[b]thiophene-4,3′-azetidine]-3-carbonitrile], the IC50 was below 0.01 µM in test [1] and 1 to 10 µM in test [2].

Take `CO/N=C1/CCCN(c2nc(OC[C@@]34CCCN3C[C@H](F)C4)nc(N3CC4(CCc5sc(N)c(C#N)c54)C3)c2C#N)CC1` [Compound 59, 2-amino-1′-[5-cyano-2-[[(2R,8S)-2-fluoro-1,2,3,5,6,7-hexahydropyrrolizin-8-yl]methoxy]-6-[(4Z)-4-methoxyiminoazepan-1-yl]pyrimidin-4-yl]spiro[5,6-dihydrocyclopenta[b]thiophene-4,3′-azetidine]-3-carbonitrile]: the IC50 in test [1] lay in the range of 0.1 to 1 µM; in test [2] it was 10 to 100 µM.

Regarding `Cc1nnc(-c2nn3c(c2Cl)CN(c2nc(OC[C@@]45CCCN4C[C@H](F)C5)nc(N4CC5(CCc6sc(N)c(C#N)c65)C4)c2C#N)CCC3)n1C` [Compound 60, 2-amino-1′-[6-[3-chloro-2-(4,5-dimethyl-1,2,4-triazol-3-yl)-4,6,7,8-tetrahydropyrazolo[1,5-a][1,4]diazepin-5-yl]-5-cyano-2-[[(2R,8S)-2-fluoro-1,2,3,5,6,7-hexahydropyrrolizin-8-yl]methoxy]pyrimidin-4-yl]spiro[5,6-dihydrocyclopenta[b]thiophene-4,3′-azetidine]-3-carbonitrile], the IC50 was below 0.01 µM in test [1] and 1 to 10 µM in test [2].

Consider `N#Cc1c(N2C[C@H]3CC[C@@H](C2)[C@@H]3N)nc(OCC2(CN3CCOCC3)CC2)nc1N1CC2(CCc3sc(N)c(C#N)c32)C1` [Compound 61, 2-amino-1′-[6-[(1R,5S)-8-amino-3-azabicyclo[3.2.1]octan-3-yl]-5-cyano-2-[[1-(morpholinomethyl)cyclopropyl]methoxy]pyrimidin-4-yl]spiro[5,6-dihydrocyclopenta[b]thiophene-4,3′-azetidine]-3-carbonitrile], for which the values for the IC50 in test [1] and in test [2] were 0.01 to 0.1 µM and 0.1 to 1 µM, respectively.

`N#Cc1cnc(OCC2(CN3CCOCC3)CC2)nc1N1CC2(CCCc3sc(N)c(C#N)c32)C1` [Compound 63, 2-amino-1′-[5-cyano-2-[[1-(morpholinomethyl)cyclopropyl]methoxy]pyrimidin-4-yl]spiro[6,7-dihydro-5H-benzothiophene-4,3′-azetidine]-3-carbonitrile]: the values for the IC50 in test [1] and in test [2] were 0.01 to 0.1 µM and 10 to 100 µM, respectively.

With `N#Cc1c(N2C[C@H]3CC[C@@H](C2)N3)nc(OCC2(CN3CCOCC3)COC2)nc1N1CC2(CCc3sc(N)c(C#N)c32)C1` [Compound 64, 2-amino-1′-[5-cyano-2-[[3-(morpholinomethyl)oxetan-3-yl]methoxy]-6-[(1R,5S)-3,8-diazabicyclo[3.2.1]octan-3-yl]pyrimidin-4-yl]spiro[5,6-dihydrocyclopenta[b]thiophene-4,3′-azetidine]-3-carbonitrile], the figures for the IC50 in test [1] and in test [2] were below 0.01 µM and 1 to 10 µM, respectively.

On to `N#Cc1cnc(OC[C@@]23CCCN2C[C@H](F)C3)nc1N1CC2(CCc3sc(N)c(C#N)c32)C1` [Compound 65, 2-amino-1′-[5-cyano-2-[[(2R,8S)-2-fluoro-1,2,3,5,6,7-hexahydropyrrolizin-8-yl]methoxy]pyrimidin-4-yl]spiro[5,6-dihydrocyclopenta[b]thiophene-4,3′-azetidine]-3-carbonitrile], for which the IC50 fell in the range of 1 to 20 µM in test [1] and 10 to 100 µM in test [2].

Source of the values: US12145947B2, “Pyrimidine based modulators and uses thereof” (Quanta Therapeutics, Inc., priority 2022, dated 2024).
